Measured values reported in ChEMBL document CHEMBL1156085, “Design of novel alpha7-subtype-preferring nicotinic acetylcholine receptor agonists: application of docking and MM-PBSA computational approaches, synthetic and pharmacological studies” (Bioorg Med Chem Lett, 2009).

Assays:
[1] = target: T1, Neuronal acetylcholine receptor subunit alpha-7 (Rattus norvegicus, UniProt Q05941); assay: Displacement of [125I]alpha-bungarotoxin from rat alpha7 nAChR
[2] = target: Neuronal acetylcholine receptor; alpha4/beta2 (Rattus norvegicus, UniProt P09483+P12390); assay: Displacement of [3H]epibatidine from rat alpha4beta2 nAChR; assay type: protein-complex assay
[3] = target: T1, Neuronal acetylcholine receptor subunit alpha-7; assay: Displacement of [3H]MLA from rat alpha7 nAChR

T1 sequence (Q05941 whole entry): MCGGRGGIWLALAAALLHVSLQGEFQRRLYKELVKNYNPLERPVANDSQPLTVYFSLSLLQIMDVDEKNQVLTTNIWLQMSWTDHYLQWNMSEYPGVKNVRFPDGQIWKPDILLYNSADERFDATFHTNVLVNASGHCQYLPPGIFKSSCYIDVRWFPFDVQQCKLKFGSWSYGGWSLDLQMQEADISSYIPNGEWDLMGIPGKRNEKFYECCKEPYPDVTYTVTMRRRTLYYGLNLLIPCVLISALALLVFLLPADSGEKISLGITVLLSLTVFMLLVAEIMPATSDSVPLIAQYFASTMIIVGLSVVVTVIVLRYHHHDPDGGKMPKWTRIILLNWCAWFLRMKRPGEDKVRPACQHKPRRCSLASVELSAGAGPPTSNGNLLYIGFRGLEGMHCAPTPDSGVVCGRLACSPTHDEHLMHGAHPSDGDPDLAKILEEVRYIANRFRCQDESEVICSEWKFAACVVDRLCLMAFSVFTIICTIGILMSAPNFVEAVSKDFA
Chain of Neuronal acetylcholine receptor; alpha4/beta2 (P09483 whole entry): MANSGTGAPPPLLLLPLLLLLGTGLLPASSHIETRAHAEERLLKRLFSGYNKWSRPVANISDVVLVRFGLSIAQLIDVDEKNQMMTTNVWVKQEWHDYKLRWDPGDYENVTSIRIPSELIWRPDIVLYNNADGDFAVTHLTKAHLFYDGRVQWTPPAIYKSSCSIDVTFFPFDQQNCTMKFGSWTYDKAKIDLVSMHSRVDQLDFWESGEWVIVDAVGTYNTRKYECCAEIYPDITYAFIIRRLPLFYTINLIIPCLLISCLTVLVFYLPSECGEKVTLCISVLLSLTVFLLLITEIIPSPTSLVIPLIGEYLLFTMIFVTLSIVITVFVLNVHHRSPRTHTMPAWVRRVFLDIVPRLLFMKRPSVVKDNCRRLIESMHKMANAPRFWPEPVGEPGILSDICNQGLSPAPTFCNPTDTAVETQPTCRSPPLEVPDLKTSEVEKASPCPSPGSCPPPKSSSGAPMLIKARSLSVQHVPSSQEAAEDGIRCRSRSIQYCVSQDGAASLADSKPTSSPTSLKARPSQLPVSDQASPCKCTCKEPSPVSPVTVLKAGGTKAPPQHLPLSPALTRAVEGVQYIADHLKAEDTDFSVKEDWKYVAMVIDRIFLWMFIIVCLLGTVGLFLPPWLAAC
Chain of Neuronal acetylcholine receptor; alpha4/beta2 (P12390 whole entry): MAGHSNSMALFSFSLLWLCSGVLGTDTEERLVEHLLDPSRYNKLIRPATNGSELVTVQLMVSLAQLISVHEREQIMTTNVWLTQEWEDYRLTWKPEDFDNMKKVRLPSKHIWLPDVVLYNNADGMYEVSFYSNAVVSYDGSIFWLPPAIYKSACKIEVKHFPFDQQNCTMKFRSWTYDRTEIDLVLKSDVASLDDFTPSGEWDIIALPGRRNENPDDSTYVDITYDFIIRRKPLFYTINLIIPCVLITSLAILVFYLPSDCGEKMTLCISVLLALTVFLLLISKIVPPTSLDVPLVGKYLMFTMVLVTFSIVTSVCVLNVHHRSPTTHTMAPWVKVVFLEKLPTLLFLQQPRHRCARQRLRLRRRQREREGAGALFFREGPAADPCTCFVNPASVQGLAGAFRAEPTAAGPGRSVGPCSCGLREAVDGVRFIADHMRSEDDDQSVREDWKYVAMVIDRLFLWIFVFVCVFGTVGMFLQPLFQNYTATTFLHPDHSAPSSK

Compound `C1=C(c2ccc(N3CCOCC3)nc2)C2CCN1CC2` has a Ki [1] of 0.4 µM and a Ki [2] of 3.1 µM.

`C1=C(c2ccc(N3CCOCC3)nc2)C2CCC1N2` (stereo not drawn) gave a Ki [1] of 33 µM and a Ki [2] of 12 µM.

With `C[N+]12C=C(c3ccc(N4CCOCC4)nc3)C(CC1)CC2` the Ki [1] was 5.6 µM and the Ki [2] was 22 µM.

Compound `c1cc(N2CCOCC2)ncc1C1CN2CCC1CC2` (stereo not drawn) has a Ki [1] of 0.35 µM and a Ki [2] of 21 µM.

Compound `C1=C(c2cccnc2)C2CCN1CC2` has a Ki [1] of 0.14 µM, a Ki [2] of 0.11 µM and a Ki [3] of 0.085 µM.

`C[N+]12CCC(CC1)C(c1ccc(N3CCOCC3)nc1)C2` (stereo not drawn) was tested, and the Ki [1] was 6.1 µM and the Ki [2] was 25 µM.
